The results in this text go back to US20100041900A1, “Isolation of lactam compound from adlay bran and its use on anti-proliferative cancer cells” (KUANG TA FOODS CO., LTD, priority 2008, published 2010).

Type in all cases: cell-based
One experiment deals with A549 (human lung cancer). Kind of experiment: MTT assay, growth inhibition of A549 cells. Particulars: for IC50: Homo sapiens. As for the experimental part: (§1) The cell lines A549 (human lung cancer), HT-29 (human colon carcinoma), and COLO 205 (human colon carcinoma) were obtained from the American Type Culture Collection (ATCC) (Rockville, Md.). These cell lines were maintained in DMEM containing 10% heat-inactivated fetal bovine serum, 100 units/mL of penicillin and 100 μg/mL of streptomycin, and were kept at 37° C. in a 5% CO2 incubator.
(§2) MTT assay was performed as described by Hansen et al. (Hansen et al., J. Immunol. Methods 119, 203-210, 1989). A549 (1.5×10^3 cells/well), HT-29 (2×10^3 cells/well), and COLO 205 (3×10^3 cells/well) were seeded in 96-well plates and grown overnight. Cells were then incubated in 10% FBS medium containing different amounts of adlay bran subfractions for 48 hours. At the end of incubation, media were replaced with 100 μL of reagent (MTT, 1 mg/mL) and incubated in a 5% CO2 incubator at 37° C. for another 2 h. The medium was then discarded and 100 μL of DMSO was added to each well. The absorbance was measured at 570 nm by scanning with a micro-plate reader (Molecular Devices, Calif.). Each sample was analyzed six times, and the values were averaged. For the determination of IC50 (the concentration of each substance required to inhibit cell proliferation by 50%), each sample was measured at five different concentrations by the MTT test. […] The IC50 values of each sample were collected from three replicates, and then mean±standard deviation values were obtained for the results of the IC50 assay.
In general terms: Tetrazolium dyes change colour on reduction, which living cells bring about.

Experiment [1] concerns HT-29 (human colon carcinoma). In words: MTT assay, growth inhibition of HT-29 cells. Particulars: 48 hours incubation, mean ± SD of three replicates; for IC50: Homo sapiens, HT-29, 48 h, read-out: IC50 (concentration required for 50% growth inhibition of cancer cells), HT-29. Here is the method:
as §1, §2

The test system of experiment [2] is COLO 205 (human colon carcinoma). Kind of experiment: MTT assay, growth inhibition of COLO 205 cells. Particulars: 48 hours incubation, mean ± SD of three replicates; for IC50: Homo sapiens, COLO 205, 48 h, read-out: IC50 (concentration required for 50% growth inhibition of cancer cells), COLO 205. As for the experimental part: as §1, §2
[3] abbreviates: A549, 48 h, A549 cells, 48 hours incubation, MTT, mean ± SD of three replicates, read-out: IC50 (concentration required for 50% growth inhibition of cancer cells), A549.
The mark [4] stands for this setting: A549, summary range over all five compounds and all three cell lines A549, HT-29, COLO 205, read-out: IC50 values against A549, HT-29 and COLO 205 cells (overall range).

Values after ≈ are worked out from the molar mass of the structure shown. Like-named read-outs stand apart in the source and are kept apart here.

For the compound `O=C1C[C@]2(CO1)C(=O)Nc1ccccc12` [Compound 1, coixspirolactam A], the IC50 with A549 (human lung cancer) (setting [3]) is 37.1 ± 1.93 µg/mL (≈ 183 µM); in the experiment on A549 (human lung cancer) (setting [4]) it was 28.6 to 72.6 µg/mL (≈ 141 to 357 µM); in experiment [1] it was 34.4 ± 3.53 µg/mL (≈ 169 µM); in experiment [2], 35.9 ± 4.65 µg/mL (≈ 177 µM).

Take `CC1OC(=O)C[C@@]12C(=O)Nc1ccccc12` (stereo partly shown) [Compound 2, coixspirolactam B]: the IC50 is 28.6 ± 2.04 µg/mL (≈ 132 µM) with A549 (human lung cancer) (setting [3]), 28.6 to 72.6 µg/mL (≈ 132 to 334 µM) in the experiment with A549 (human lung cancer) (setting [4]), 32.7 ± 2.29 µg/mL (≈ 151 µM) in experiment [1] and 41.3 ± 3.52 µg/mL (≈ 190 µM) in experiment [2].

With `COC(=O)[C@H]1Cc2ccccc2NC1=O` [Compound 4, coixlactam], the IC50 was 65 ± 3.32 µg/mL (≈ 317 µM) in the experiment with A549 (human lung cancer) (setting [3]), 28.6 to 72.6 µg/mL (≈ 139 to 354 µM) with A549 (human lung cancer) (setting [4]), 52.6 ± 2.64 µg/mL (≈ 256 µM) in experiment [1] and 72.6 ± 5.31 µg/mL (≈ 354 µM) in experiment [2].

`CC1OC(=O)C[C@@]12C(=O)Nc1ccccc12` (stereo partly shown) [Compound 3, coixspirolactam C]: the “IC50 (concentration required for 50% growth inhibition of cancer cells), A549” value with A549 (human lung cancer) (A549 cells, 48 hours incubation, MTT, mean ± SD of three replicates) was 31.75 ± 2.58 µg/mL. In addition, in experiment [1], the “IC50 (concentration required for 50% growth inhibition of cancer cells), HT-29” value was 37.55 ± 3.08 µg/mL. Further, in experiment [2], the “IC50 (concentration required for 50% growth inhibition of cancer cells), COLO 205” value amounted to 48.12 ± 4.15 µg/mL.

Consider `COC(=O)CC1(O)C(=O)Nc2ccccc21` (stereo not shown) [Compound 5, methyl dioxindole-3-acetate], for which the IC50 in the experiment with A549 (human lung cancer) (setting [3]) is 42.6 ± 2.31 µg/mL (≈ 193 µM); with A549 (human lung cancer) (setting [4]) it was 28.6 to 72.6 µg/mL (≈ 129 to 328 µM); in experiment [1] it was 48.9 ± 3.83 µg/mL (≈ 221 µM); in experiment [2], 45.5 ± 6.42 µg/mL (≈ 206 µM).
